Like-named read-outs stand apart in the source and are kept apart here.
Columns and labels:
Assay type in all cases: cell-based, human
[1] = system: HTT mRNA; assay: RT-qPCR splicing assay, HTT canonical (CJ) and alternative (AJ) junction mRNA; settings: for AC50: read-out: HTT AJ (AC50, increase in AJ mRNA)
Outline: (§1)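 Cells: A673 (DMEM/10% FBS, plated 24 h before) or K562 (IMDM/10% FBS). Dosing: 11-pt 3-fold series, 10 uM top final, ≤0.25% DMSO, 24 h, 37 °C/5% CO2. Readout: RT-qPCR of CJ and AJ junctions, housekeeper-normalized, RQ = 2^(-ΔΔCt) vs DMSO.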

[2] = system: SMN2 mRNA; assay: RT-qPCR splicing assay panel, SMN2 canonical junction (CJ) mRNA; settings: canonical junction (CJ) mRNA, RT-qPCR panel, Table 4A, read-out: SMN2, decrease in CJ mRNA levels, IC50
Outline: as §1

[3] = system: MYB mRNA; assay: RT-qPCR splicing assay, MYB canonical (CJ) and alternative (AJ) junction mRNA; settings: for AC50: read-out: MYB AJ (AC50, increase in AJ mRNA)
Outline: as §1

[4] = system: Target C mRNA; assay: RT-qPCR splicing assay panel, Target C canonical junction (CJ) mRNA; settings: canonical junction (CJ) mRNA, RT-qPCR panel, Table 4A, read-out: Target C, decrease in CJ mRNA levels, IC50
Outline: as §1

[5] = Homo sapiens, 24 h, Table 3A, A673 or K562 cells, 24 h treatment
[6] = Homo sapiens, 24 h, Table 3A, A673 or K562 cells, 24 h treatment, read-out: HTT CJ (IC50, decrease in CJ mRNA)
[7] = Homo sapiens, canonical junction (CJ) mRNA, RT-qPCR panel, Table 4A, read-out: HTT, decrease in CJ mRNA levels, IC50
[8] = Homo sapiens, 24 h, Table 3A, A673 or K562 cells, 24 h treatment, read-out: MYB CJ (IC50, decrease in CJ mRNA)
[9] = Homo sapiens, canonical junction (CJ) mRNA, RT-qPCR panel, Table 4A, read-out: MYB, decrease in CJ mRNA levels, IC50
[10] = Table 3A, A673 or K562 cells, 24 h treatment
[11] = Table 3A, A673 or K562 cells, 24 h treatment, read-out: HTT CJ (IC50, decrease in CJ mRNA)
[12] = canonical junction (CJ) mRNA, RT-qPCR panel, Table 4A, read-out: HTT, decrease in CJ mRNA levels, IC50
[13] = Table 3A, A673 or K562 cells, 24 h treatment, read-out: MYB CJ (IC50, decrease in CJ mRNA)
[14] = canonical junction (CJ) mRNA, RT-qPCR panel, Table 4A, read-out: MYB, decrease in CJ mRNA levels, IC50

Structure (SMILES)	IC50 [1, 6] [nM]	IC50 [1, 7] [nM]	IC50 ([2]; Homo sapiens) [nM]	IC50 [3, 8] [nM]	IC50 [3, 9] [nM]	IC50 ([4]; Homo sapiens) [nM]	IC50 [1, 11] [nM]	IC50 [1, 12] [nM]	IC50 [2] [nM]	IC50 [3, 13] [nM]	IC50 [3, 14] [nM]	IC50 [4] [nM]	AC50 [1, 5] [nM]	AC50 [3, 5] [nM]	AC50 [1, 10] [nM]	AC50 [3, 10] [nM]
Cc1nc(-c2ccc(-c3ccc(N4CCC(NC5CCC5)C4)nn3)c(O)c2)cs1 (centres unmarked) [Compound 412]						> 10000	> 10000	> 10000	> 10000	> 10000	> 10000				> 10000	> 10000
Cc1nc(-c2ccc(-c3ccc(N4CCC(NC5CCC5)C4)nn3)c(O)c2)cs1 (centres unmarked) [Compound 413]							1000 to 10000	1000 to 10000	1000 to 10000	1000 to 10000	1000 to 10000	> 10000			1000 to 10000	1000 to 10000
COc1cc(-c2cc(O)c(-c3ccc(N4CCC(NCC5CC5)C4)nn3)cc2F)ncn1 (centres unmarked) [Compound 417]	1000 to 10000	1000 to 10000	1000 to 10000	> 10000	> 10000	> 10000							1000 to 10000	1000 to 10000		
Oc1cc(-c2ccc(-c3ccc(N4CC[C@@H](NC5CCC5)C4)nn3)c(O)c2)cnn1 [Compound 419, 5-(4-{6-[(3R)-3-(cyclobutylamino)pyrrolidin-1-yl]pyridazin-3-yl}-3-hydroxyphenyl)pyridazin-3-ol]	100 to 1000	100 to 1000	100 to 1000	1000 to 10000	1000 to 10000	1000 to 10000							1000 to 10000	> 10000		
Oc1cc(-c2ccc(-c3ccc(N4CC[C@H](NC5CCC5)C4)nn3)c(O)c2)cnn1 [Compound 420, 5-(4-{6-[(3S)-3-(cyclobutylamino)pyrrolidin-1-yl]pyridazin-3-yl}-3-hydroxyphenyl)pyridazin-3-ol]	100 to 1000	100 to 1000	100 to 1000	1000 to 10000	1000 to 10000	1000 to 10000							1000 to 10000	> 10000		
CC1(C)CC(Oc2nnc(-c3ccc(-c4cn[nH]c4)cc3O)cc2C#N)CC(C)(C)N1 [Compound 423]	1000 to 10000	1000 to 10000	100 to 1000	> 10000	> 10000	> 10000							1000 to 10000	> 10000		
COc1cc(-c2ccc(-c3cc(C#N)c(OC4CC(C)(C)NC(C)(C)C4)nn3)c(O)c2)cnn1 [Compound 424]	100 to 1000	100 to 1000	100 to 1000	1000 to 10000	1000 to 10000	1000 to 10000							100 to 1000	1000 to 10000		
COc1cc(-c2ccc(-c3cc(C#N)c(OC4CC(C)(C)NC(C)(C)C4)nn3)c(O)c2)ncn1 [Compound 425]	100 to 1000	100 to 1000	100 to 1000	1000 to 10000	1000 to 10000	1000 to 10000							1000 to 10000	1000 to 10000		
COc1cc(-c2ccc(-c3ccc(N4CC[C@H](N[C@H]5C[C@H](F)C5)C4)nn3)c(O)c2)ncn1 [Compound 426]	100 to 1000	100 to 1000	100 to 1000	1000 to 10000	1000 to 10000	1000 to 10000							100 to 1000	1000 to 10000		
COc1cc(-c2ccc(-c3ccc(N4CC[C@@H](N[C@H]5C[C@H](F)C5)C4)nn3)c(O)c2)ncn1 [Compound 427]	100 to 1000	100 to 1000	100 to 1000	1000 to 10000	1000 to 10000	1000 to 10000							100 to 1000	1000 to 10000		
COCCc1cc(-c2ccc(-c3ccc(N4CCC(NC5CCC5)C4)nn3)c(O)c2)cnn1 (centres unmarked) [Compound 430]	> 10000	> 10000	> 10000	> 10000	> 10000	> 10000							> 10000	> 10000		
CCOc1cc(-c2ccc(-c3ccc(N4CCC(NCC5CC5)C4)nn3)c(O)c2)ncn1 (centres unmarked) [Compound 433]	> 10000	> 10000	> 10000	> 10000	> 10000	> 10000							> 10000	> 10000		

The next lines start with results.

IC50 [1, 6] [nM]	IC50 [1, 7] [nM]	IC50 ([2]; Homo sapiens) [nM]	IC50 [3, 8] [nM]	IC50 [3, 9] [nM]	IC50 ([4]; Homo sapiens) [nM]	IC50 [1, 11] [nM]	IC50 [1, 12] [nM]	IC50 [2] [nM]	IC50 [3, 13] [nM]	IC50 [3, 14] [nM]	IC50 [4] [nM]	Structure (SMILES)	AC50 [1, 5] [nM]	AC50 [3, 5] [nM]	AC50 [1, 10] [nM]	AC50 [3, 10] [nM]
< 100	< 100	< 100	1000 to 10000	1000 to 10000	< 100							Cc1ncc(-c2cc(O)c(-c3ccc(N4CC[C@H](NCC5CCC5)C4)nn3)cc2F)s1 [Compound 411]	< 100	100 to 1000		
< 100	< 100	< 100	100 to 1000	100 to 1000	100 to 1000							Cc1nnc(-c2ccc(-c3ccc(N4CC[C@H](NCC5CC5)C4)nn3)c(O)c2)s1 [Compound 414]	100 to 1000	100 to 1000		
< 100	< 100	< 100	100 to 1000	100 to 1000	100 to 1000							Cc1nnc(-c2ccc(-c3ccc(N4CC[C@@H](NCC5CC5)C4)nn3)c(O)c2)s1 [Compound 415]	< 100	100 to 1000		
< 100	< 100	< 100	< 100	< 100	< 100							Cc1ncc(-c2cc(O)c(-c3ccc(N4CC[C@@H](N[C@H](C)C5CC5)C4)nn3)cc2F)s1 [Compound 418]	< 100	< 100		
100 to 1000	100 to 1000	100 to 1000	100 to 1000	100 to 1000	100 to 1000							COc1nc(-c2cnc(N3CCC(NC4CCC4)C3)nn2)ccc1-c1cnc(C)s1 (centres unmarked) [Compound 421]	100 to 1000	100 to 1000		
< 100	< 100	< 100	100 to 1000	100 to 1000	100 to 1000							COc1nc(-c2cnc(N3CCC(NC(C)(C)C)C3)nn2)ccc1-c1cnc(C)s1 (centres unmarked) [Compound 422]	< 100	100 to 1000		
100 to 1000	100 to 1000	< 100	100 to 1000	100 to 1000	100 to 1000							Cc1nc(C#N)c(-c2cc(O)c(-c3ccc(N4CC[C@@H](NC5CCC5)C4)nn3)cc2F)s1 [Compound 428]	100 to 1000	100 to 1000		
100 to 1000	100 to 1000	100 to 1000	1000 to 10000	1000 to 10000	100 to 1000							Cc1nc(C#N)c(-c2cc(O)c(-c3ccc(N4CC[C@H](NC5CCC5)C4)nn3)cc2F)s1 [Compound 429]	100 to 1000	1000 to 10000		
100 to 1000	100 to 1000	< 100	100 to 1000	100 to 1000	100 to 1000							Cc1nsc(-c2cc(O)c(-c3ccc(N4CC[C@@H](NCC5CC5)C4)nn3)cc2F)n1 [Compound 431]	100 to 1000	100 to 1000		
< 100	< 100	< 100	1000 to 10000	1000 to 10000	100 to 1000							Cc1nsc(-c2cc(O)c(-c3ccc(N4CC[C@H](NCC5CC5)C4)nn3)cc2F)n1 [Compound 432]	100 to 1000	100 to 1000		
< 100	< 100	< 100	100 to 1000	100 to 1000	100 to 1000							CNc1cc(-c2ccc(-c3ccc(N4CCC(NCC5CC5)C4)nn3)c(O)c2)ncn1 (centres unmarked) [Compound 434]	< 100	100 to 1000		
100 to 1000	100 to 1000	< 100	1000 to 10000	1000 to 10000	100 to 1000							Cc1ncc(-c2cc(O)c(-c3cnc(OC4CC(C)(C)NC(C)(C)C4)nn3)cc2F)s1 [Compound 435]	100 to 1000	1000 to 10000		
< 100	< 100	< 100	100 to 1000	100 to 1000	< 100							CNc1cc(-c2ccc(-c3ccc(N4CC[C@H](NC(C)(C)C)C4)nn3)c(O)c2)ncn1 [Compound 436, 2-{6-[(3S)-3-(tert-butylamino)pyrrolidin-1-yl]pyridazin-3-yl}-5-[6-(methylamino)pyrimidin-4-yl]phenol]	< 100	100 to 1000		

Reference: patent US20250333397A1 (REMIX THERAPEUTICS INC., priority 2021, published 2025)
